Laboratory results: patent publication US7868135B2, “Compositions of lipopeptide antibiotic derivatives and methods of use thereof” (priority 2003, dated 2011)
Like-named read-outs stand apart in the source and are kept apart here.

Assays:
[1] = system: Staphylococcus aureus SAU0031 (VISA); assay: Broad spectrum MIC, Table 17/18 column G; format: cell-based; conditions: condition G of Table 17, in µg/mL
Procedure: (§1) The antimicrobial lipopeptide derivatives described herein were tested for antimicrobial activity against Gram-positive bacteria as follows. The minimum inhibitory concentrations (MIC) of the antimicrobial lipopeptide derivatives of the invention were determined using NCCLS guidelines M7-A6 (2003) with a slight modification in that doubling serial dilutions were used to dilute the test compounds. The broth phase microdilution method was used. Isolated colonies of Staphylococcus aureus (MSSA) from an 18-24 hour blood agar plate cultures were used to inoculate cation adjusted Mueller-Hinton broth (CAMHB) supplemented with 0.625 mM calcium. […] A negative control containing media alone and a positive growth control containing bacteria with media alone were also included. MICs were determined after incubating the plates at about 37° C. for 24 hours. […] In Tables 1 to 16, R is the core cyclic peptide of amphomycin or aspartocin, which can be in the form of a β-isomer, an anhydro, a dianhydro, or any combination thereof. […] Furthermore, a person of skill in the art will appreciate that all the pounds, or groups of compounds, derived from the various combinations of and substituents shown in Tables 1 to 16, are disclosed by the present the same extent as if each compound or group of compounds was set forth individually.
(§2) Antimicrobial lipopeptide derivatives of the instant invention were tested for antimicrobial activity against Gram-positive bacteria in a variety of media conditions. The […] (MIC) of the antimicrobial lipopeptide derivatives were determined as described in Example 376. The various media used are described in Table 17.

[2] = system: Staphylococcus aureus (MSSA)
Procedure, shortened: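 Broth microdilution MIC per NCCLS M7-A6 with doubling serial dilutions, in cation-adjusted Mueller-Hinton broth supplemented with 0.625 mM calcium.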

[3] = system: Staphylococcus epidermidis SEP0375 (MRSE); assay: Broad spectrum MIC, Table 17/18 column I; format: cell-based; conditions: condition I of Table 17, in µg/mL
Procedure: as §1, §2

[4] = system: Streptococcus pneumoniae SPN0023 (PRSP); assay: Broad spectrum MIC, Table 17/18 column K; format: cell-based; conditions: condition K of Table 17, in µg/mL
Procedure: as §1, §2

[5] = system: Streptococcus pyogenes SPY0001 (PenS); assay: Broad spectrum MIC, Table 17/18 column M; format: cell-based; conditions: condition M of Table 17, in µg/mL
Procedure: as §1, §2

[6] = system: Streptococcus pneumoniae SPN0002 (PISP); assay: Broad spectrum MIC, Table 17/18 column J; format: cell-based; conditions: condition J of Table 17, in µg/mL
Procedure: as §1, §2

[7] = system: Staphylococcus aureus SAU0017 (MSSA); assay: Broad spectrum MIC, Table 17/18 columns E, F (+ 0.625 mM calcium; + calcium and 30% bovine serum); format: cell-based; conditions: in µg/mL; for MIC, media condition E: condition E: + 0.625 mM calcium; for MIC, media condition F: condition F: + calcium and 30% bovine serum
Procedure: as §1, §2

[8] = system: Enterococcus faecalis EFS0004 (VSE); assay: Broad spectrum MIC, Table 17/18 B, C, D (CAMHB; + 0.625 mM calcium; + calcium and 30% bovine serum); format: cell-based; conditions: in µg/mL; for MIC, media condition B: condition B: CAMHB; for MIC, media condition C: condition C: + 0.625 mM calcium; for MIC, media condition D: condition D: + calcium and 30% bovine serum
Procedure: as §1, §2

[9] = system: Enterococcus faecium EFM0101 (VRE, MDR); assay: Broad spectrum MIC, Table 17/18 column A; format: cell-based; conditions: condition A of Table 17, in µg/mL
Procedure: as §1, §2

[10] = system: Staphylococcus aureus SAU0065 (MRSA); assay: Broad spectrum MIC, Table 17/18 column H; format: cell-based; conditions: condition H of Table 17, in µg/mL
Procedure: as §1, §2

[11] = system: Streptococcus pneumoniae SPN0032 (PSSP); assay: Broad spectrum MIC, Table 17/18 column L; format: cell-based; conditions: condition L of Table 17, in µg/mL
Procedure: as §1, §2

Compound | MIC, media condition G [1] | MIC ([2]; 24 h) [µg/mL] | MIC, media condition I [3] | MIC, media condition K [4] | MIC, media condition M [5] | MIC, media condition J [6] | MIC, media condition E [7] | MIC, media condition F [7] | MIC, media condition B [8] | MIC, media condition C [8] | MIC, media condition D [8] | MIC, media condition A [9] | MIC, media condition H [10] | MIC, media condition L [11] | MIC ([2]; S. aureus (MSSA), CAMHB supplemented with 0.625 mM calcium, 24 hours at about 37° C., a range = compound tested multiple times)
CCCCCCCCCCCCOc1ccc(C(=O)NC(CC(=O)O)C(=O)NC2C(=O)N3CCCCC3C(=O)NC(C(C)C(=O)O)C(=O)NC(CC(=O)O)C(=O)NCC(=O)NC(CC(=O)O)C(=O)NCC(=O)NC(C(C)N)C(=O)NC(C(C)C)C(=O)N3CCCC3C(=O)NC2C)cc1 (centres unmarked) [Compound 15, CH3—(CH2)11—O-p-Ph-C(═O)-Amphomycin] | 4-8 | 2 to 4 | 2-4 | 0.125-0.5 | 0.5-2 | 0.125-1 | 2-4 | 32 | 2-4 | 1-4 | >64 | 2-4 | 2-8 | 0.25-1 | 
CCCCCCCCCCCCNC(=O)NC(CC(=O)O)C(=O)NC1C(=O)N2CCCCC2C(=O)NC(C(C)C(=O)O)C(=O)NC(CC(=O)O)C(=O)NCC(=O)NC(CC(=O)O)C(=O)NCC(=O)NC(C(C)NC(=O)CCN)C(=O)NC(C(C)C)C(=O)N2CCCC2C(=O)NC1C (stereo not drawn) [Compound 97, CH3—(CH2)11—NH—C(═O)-Amphomycin-9-(β-Ala)] | 4 | 0.25 | 1 | 0.25 | 0.5 | 0.125 | 0.25 | 16 | 64 | 4 | 64 | 2 | 1 | 0.125 | 
CCCCCCCCCCCCNC(=O)NC(CC(=O)O)C(=O)NC1C(=O)N2CCCCC2C(=O)NC(C(C)C(=O)O)C(=O)NC(CC(=O)O)C(=O)NCC(=O)NC(CC(=O)O)C(=O)NCC(=O)NC(C(C)NC(=O)CN)C(=O)NC(C(C)C)C(=O)N2CCCC2C(=O)NC1C (centres unmarked) [Compound 92, CH3—(CH2)11—NH—C(═O)-Amphomycin-9-Gly] | 4 | 0.25 to 0.5 | 0.5-1 | 0.125 | 0.25 | 0.25 | 0.25-0.5 | 8 | 6-16 | 2-4 | 64 | 1-2 | 1-2 | 0.25 | 

The next lines start with the values.

MIC, media condition G [1] | MIC ([2]; 24 h) [µg/mL] | MIC, media condition I [3] | MIC, media condition K [4] | MIC, media condition M [5] | MIC, media condition J [6] | MIC, media condition E [7] | MIC, media condition F [7] | MIC, media condition B [8] | MIC, media condition C [8] | MIC, media condition D [8] | MIC, media condition A [9] | MIC, media condition H [10] | MIC, media condition L [11] | MIC ([2]; S. aureus (MSSA), CAMHB supplemented with 0.625 mM calcium, 24 hours at about 37° C., a range = compound tested multiple times) | Compound
4-8 | 1 to 2 | 2 | 0.125 | 0.5 | 0.25 | 1-2 | 32-64 | 0.5-1 | 1 | 64 | 0.5-1 | 1-2 | 0.25-0.5 |  | CCCCCCCCCCCCCCCCC(=O)NC(CC(=O)O)C(=O)NC1C(=O)N2CCCCC2C(=O)NC(C(C)C(=O)O)C(=O)NC(CC(=O)O)C(=O)NCC(=O)NC(CC(=O)O)C(=O)NCC(=O)NC(C(C)N)C(=O)NC(C(C)C)C(=O)N2CCCC2C(=O)NC1C (centres unmarked) [Compound 12, C17-Amphomycin]
16 | 4 | 4 | 0.25 | 2 | 0.5 | 4 | >64 | 16 | 8 | >64 | 8 | 4 | 2 |  | CCCCCCCCCCCCCCC(=O)NC(CC(=O)O)C(=O)NC1C(=O)N2CCCCC2C(=O)NC(C(C)C(=O)O)C(=O)NC(CC(=O)O)C(=O)NCC(=O)NC(CC(=O)O)C(=O)NCC(=O)NC(C(C)NC(=O)[C@@H]2CCCN2)C(=O)NC(C(C)C)C(=O)N2CCCC2C(=O)NC1C (some centres unmarked) [Compound 160, C15-Amphomycin-9-Pro]
8 |  | 1-2 | 0.125 | 0.25-0.5 | 0.125 | 0.5-1 | 16-32 | 0.5-1 | 0.5-1 | 64 | 0.5-1 | 2 | 0.25 | 80/0.5-1 μg/mL | CCCCCCCCCCCCCCCCC(=O)NC(CC(=O)O)C(=O)NC1C(=O)N2CCCCC2C(=O)NC(C(C)C(=O)O)C(=O)NC(CC(=O)O)C(=O)NCC(=O)NC(CC(=O)O)C(=O)NCC(=O)NC(C(C)NC(=O)CCN)C(=O)NC(C(C)C)C(=O)N2CCCC2C(=O)NC1C (stereo not drawn) [Compound 80, C17-Amphomycin-9-(β-Ala)]
2-4 | 0.5 | 1 | 0.125 | 0.25-0.5 | 0.25 | 0.5 | 8-16 | 0.5 | 0.5-1 | 64 | 0.5-1 | 2-4 | 0.25 |  | CCCCCCCCCCCCCCCC(=O)NC(CC(=O)O)C(=O)NC1C(=O)N2CCCCC2C(=O)NC(C(C)C(=O)O)C(=O)NC(CC(=O)O)C(=O)NCC(=O)NC(CC(=O)O)C(=O)NCC(=O)NC(C(C)N)C(=O)NC(C(C)C)C(=O)N2CCCC2C(=O)NC1C (centres unmarked) [Compound 11, C16-Amphomycin]
